Measured values reported in patent publication US20240018123A1, “COMPOUND FOR INHIBITING OR DISINTEGRATING ANDROGEN RECEPTOR, AND PHARMACEUTICAL USE THEREOF” (KOREA RESEARCH INSTITUTE OF CHEMICAL TECHNOLOGY, priority 2020, published 2024).

test system: VCaP cells; assay: Cytotoxicity assessment (Cell-titer-glo cell viability), VCaP; details: read-out: VCaP (CC50); VCaP cells, 6 days of treatment, Cell-titer-glo, vs DMSO

Question: With `CC1(C)C(NC(=O)c2ccc(N3CCN(Cc4cn(C5CCN(c6ccc7nnn(C8CCC(=O)NC8=O)c(=O)c7c6)CC5)nn4)CC3)cc2)C(C)(C)C1Oc1ccc(C#N)c(Cl)c1` (centres unmarked) [Example 105, N-((1r,3r)-3-(3-chloro-4-cyanophenoxy)-2,2,4,4-tetramethylcyclobutyl)-4-(4-((1-(1-(3-(2,6-dioxopiperidin-3-yl)-4-oxo-3,4-dihydrobenzo[d][1,2,3]triazin-6-yl)piperidin-4-yl)-1H-1,2,3-triazol-4-yl)methyl)piperazin-1-yl)benzamide] as the compound, how does the CC50 read?
Answer: 80.2 nM

Question: `CC1(C)C(NC(=O)c2ccc(CCN3CCN(CC4CCN(C(=O)C5CCN(c6ccc7nnn(C8CCC(=O)NC8=O)c(=O)c7c6)CC5)CC4)CC3)cc2)C(C)(C)C1Oc1ccc(C#N)c(Cl)c1` (centres unmarked) [Example 108, N-((1r,3r)-3-(3-chloro-4-cyanophenoxy)-2,2,4,4-tetramethylcyclobutyl)-4-(2-(4-((1-(1-(3-(2,6-dioxopiperidin-3-yl)-4-oxo-3,4-dihydrobenzo[d][1,2,3]triazin-6-yl)piperidine-4-carbonyl)piperidin-4-yl)methyl)piperazin-1-yl)ethyl)benzamide] was tested. Which CC50 did it give?
Answer: 18.8 nM

Question: With `CC1(C)C(NC(=O)c2ccc(CCN3CCN(CC4CCN(C(=O)C5CN(c6ccc7nnn(C8CCC(=O)NC8=O)c(=O)c7c6)C5)CC4)CC3)cc2)C(C)(C)C1Oc1ccc(C#N)c(Cl)c1` (centres unmarked) [Example 109, N-((1r,3r)-3-(3-chloro-4-cyanophenoxy)-2,2,4,4-tetramethylcyclobutyl)-4-(2-(4-((1-(1-(3-(2,6-dioxopiperidin-3-yl)-4-oxo-3,4-dihydrobenzo[d][1,2,3]triazin-6-yl)azetidine-3-carbonyl)piperidin-4-yl)methyl)piperazin-1-yl)ethyl)benzamide] as the compound, how does the CC50 read?
Answer: 13 nM

Question: With `CC1(C)C(NC(=O)c2ccc(-c3cnn(C4CCN(CC5CCN(C(=O)CNc6ccc7nnn(C8CCC(=O)NC8=O)c(=O)c7c6)CC5)CC4)c3)cc2)C(C)(C)C1Oc1ccc(C#N)c(Cl)c1` (centres unmarked) [Example 112, N-((1r,3r)-3-(3-chloro-4-cyanophenoxy)-2,2,4,4-tetramethylcyclobutyl)-4-(1-(1-((1-((3-(2,6-dioxopiperidin-3-yl)-4-oxo-3,4-dihydrobenzo[d][1,2,3]triazin-6-yl)glycyl)piperidin-4-yl)methyl)piperidin-4-yl)-1H-pyrazol-4-yl)benzamide] as the compound, how does the CC50 read?
Answer: 16 nM

Question: Which CC50 does the source give for `CC1(C)C(NC(=O)c2ccc(-c3cnn(C4CCN(CC5CCN(C(=O)COc6ccc7nnn(C8CCC(=O)NC8=O)c(=O)c7c6)CC5)CC4)c3)cc2)C(C)(C)C1Oc1ccc(C#N)c(Cl)c1` (centres unmarked) [Example 113, N-((1r,3r)-3-(3-chloro-4-cyanophenoxy)-2,2,4,4-tetramethylcyclobutyl)-4-(1-(1-((1-(2-((3-(2,6-dioxopiperidin-3-yl)-4-oxo-3,4-dihydrobenzo[d][1,2,3]triazin-6-yl)oxy)acetyl)piperidin-4-yl)methyl)piperidin-4-yl)-1H-pyrazol-4-yl)benzamide] here?
Answer: 30 nM

Question: Which CC50 does the source give for `CC1(C)C(NC(=O)c2ccc(-c3cnn(C4CCN(CC5CCN(C(=O)C6CN(c7ccc8nnn(C9CCC(=O)NC9=O)c(=O)c8c7)C6)CC5)CC4)c3)nc2)C(C)(C)C1Oc1ccc(C#N)c(Cl)c1` (centres unmarked) [Example 114, N-((1r,3r)-3-(3-chloro-4-cyanophenoxy)-2,2,4,4-tetramethylcyclobutyl)-6-(1-(1-((1-(1-(3-(2,6-dioxopiperidin-3-yl)-4-oxo-3,4-dihydrobenzo[d][1,2,3]triazin-6-yl)azetidine-3-carbonyl)piperidin-4-yl)methyl)piperidin-4-yl)-1H-pyrazol-4-yl)nicotinamide] here?
Answer: 14 nM

Question: Which CC50 does the source give for `CC1(C)C(NC(=O)c2ccc(C#CCC3CCN(CC4CCN(C(=O)C5CCN(c6ccc7nnn(C8CCC(=O)NC8=O)c(=O)c7c6)CC5)CC4)CC3)cc2)C(C)(C)C1Oc1ccc(C#N)c(Cl)c1` (centres unmarked) [Example 116, N-((1r,3r)-3-(3-chloro-4-cyanophenoxy)-2,2,4,4-tetramethylcyclobutyl)-4-(3-(1-((1-(1-(3-(2,6-dioxopiperidin-3-yl)-4-oxo-3,4-dihydrobenzo[d][1,2,3]triazin-6-yl)piperidine-4-carbonyl)piperidin-4-yl)methyl)piperidin-4-yl)prop-1-yn-1-yl)benzamide] here?
Answer: 16.1 nM

Question: For `CC1(C)C(NC(=O)c2ccc(C#CCC3CCN(CC4CCN(C(=O)CNc5ccc6nnn(C7CCC(=O)NC7=O)c(=O)c6c5)CC4)CC3)cc2)C(C)(C)C1Oc1ccc(C#N)c(Cl)c1` (centres unmarked) [Example 118, N-((1r,3r)-3-(3-chloro-4-cyanophenoxy)-2,2,4,4-tetramethylcyclobutyl)-4-(3-(1-((1-((3-(2,6-dioxopiperidin-3-yl)-4-oxo-3,4-dihydrobenzo[d][1,2,3]triazin-6-yl)glycyl)piperidin-4-yl)methyl)piperidin-4-yl)prop-1-yn-1-yl)benzamide], which CC50 is on record?
Answer: 17 nM

Question: How did the CC50 turn out when `CC1(C)C(NC(=O)c2ccc(C#CCC3CCN(CC4CCN(C(=O)COc5ccc6nnn(C7CCC(=O)NC7=O)c(=O)c6c5)CC4)CC3)cc2)C(C)(C)C1Oc1ccc(C#N)c(Cl)c1` (centres unmarked) [Example 119, N-((1r,3r)-3-(3-chloro-4-cyanophenoxy)-2,2,4,4-tetramethylcyclobutyl)-4-(3-(1-((1-(2-((3-(2,6-dioxopiperidin-3-yl)-4-oxo-3,4-dihydrobenzo[d][1,2,3]triazin-6-yl)oxy)acetyl)piperidin-4-yl)methyl)piperidin-4-yl)prop-1-yn-1-yl)benzamide] was run?
Answer: 36 nM

Question: With `CC1(C)C(NC(=O)c2ccc(-n3cc(CN4CCN(c5ccc6nnn(C7CCC(=O)NC7=O)c(=O)c6c5)CC4)nn3)cc2)C(C)(C)C1Oc1ccc(C#N)c(Cl)c1` (centres unmarked) [Example 120, N-((1r,3r)-3-(3-chloro-4-cyanophenoxy)-2,2,4,4-tetramethylcyclobutyl)-4-(4-((4-(3-(2,6-dioxopiperidin-3-yl)-4-oxo-3,4-dihydrobenzo[d][1,2,3]triazin-6-yl)piperazin-1-yl)methyl)-1H-1,2,3-triazol-1-yl)benzamide] as the compound, how does the CC50 read?
Answer: 29.7 nM

Question: How did the CC50 turn out when `CC1(C)C(NC(=O)c2ccc(-n3cc(CN4CCN(C(=O)C5CCN(c6ccc7nnn(C8CCC(=O)NC8=O)c(=O)c7c6)CC5)CC4)nn3)cc2)C(C)(C)C1Oc1ccc(C#N)c(Cl)c1` (centres unmarked) [Example 121, N-((1r,3r)-3-(3-chloro-4-cyanophenoxy)-2,2,4,4-tetramethylcyclobutyl)-4-(4-((4-(1-(3-(2,6-dioxopiperidin-3-yl)-4-oxo-3,4-dihydrobenzo[d][1,2,3]triazin-6-yl)piperidine-4-carbonyl)piperazin-1-yl)methyl)-1H-1,2,3-triazol-1-yl)benzamide] was run?
Answer: 18 nM

Question: `CC1(C)C(NC(=O)c2ccc(-n3cc(CN4CCN(C(=O)C5CN(c6ccc7nnn(C8CCC(=O)NC8=O)c(=O)c7c6)C5)CC4)nn3)cc2)C(C)(C)C1Oc1ccc(C#N)c(Cl)c1` (centres unmarked) [Example 122, N-((1r,3r)-3-(3-chloro-4-cyanophenoxy)-2,2,4,4-tetramethylcyclobutyl)-4-(4-((4-(1-(3-(2,6-dioxopiperidin-3-yl)-4-oxo-3,4-dihydrobenzo[d][1,2,3]triazin-6-yl)azetidine-3-carbonyl)piperazin-1-yl)methyl)-1H-1,2,3-triazol-1-yl)benzamide] was tested. Which CC50 did it give?
Answer: 18 nM

Question: Which CC50 does the source give for `CC1(C)[C@H](NC(=O)c2ccc(-n3cc(CN4CCN(C(=O)CNc5ccc6nnn(C7CCC(=O)NC7=O)c(=O)c6c5)CC4)nn3)cc2)C(C)(C)[C@H]1Oc1ccc(C#N)c(Cl)c1` (some centres unmarked) [Example 123, N-((1r,3r)-3-(3-chloro-4-cyanophenoxy)-2,2,4,4-tetramethylcyclobutyl)-4-(4-((4-((3-(2,6-dioxopiperidin-3-yl)-4-oxo-3,4-dihydrobenzo[d][1,2,3]triazin-6-yl)glycyl)piperazin-1-yl)methyl)-1H-1,2,3-triazol-1-yl)benzamide] here?
Answer: 55 nM

Question: Which CC50 does the source give for `CC1(C)C(NC(=O)c2ccc(-c3cnn(C4CCN(CC5CCN(C(=O)C6CCN(c7ccc8nnn(C9CCC(=O)NC9=O)c(=O)c8c7)CC6)CC5)CC4)c3)nc2)C(C)(C)C1Oc1ccc(C#N)c(Cl)c1` (centres unmarked) [Example 124, N-((1r,3r)-3-(3-chloro-4-cyanophenoxy)-2,2,4,4-tetramethylcyclobutyl)-6-(1-(1-((1-(1-(3-(2,6-dioxopiperidin-3-yl)-4-oxo-3,4-dihydrobenzo[d][1,2,3]triazin-6-yl)piperidine-4-carbonyl)piperidin-4-yl)methyl)piperidin-4-yl)-1H-pyrazol-4-yl)nicotinamide] here?
Answer: 13 nM

Question: For `CC1(C)C(NC(=O)c2ccc(-c3cnn(C4CCN(CC5CCN(C(=O)CNc6ccc7nnn(C8CCC(=O)NC8=O)c(=O)c7c6)CC5)CC4)c3)nc2)C(C)(C)C1Oc1ccc(C#N)c(Cl)c1` (centres unmarked) [Example 125, N-((1r,3r)-3-(3-chloro-4-cyanophenoxy)-2,2,4,4-tetramethylcyclobutyl)-6-(1-(1-((1-((3-(2,6-dioxopiperidin-3-yl)-4-oxo-3,4-dihydrobenzo[d][1,2,3]triazin-6-yl)glycyl)piperidin-4-yl)methyl)piperidin-4-yl)-1H-pyrazol-4-yl)nicotinamide], which CC50 is on record?
Answer: 15.5 nM

Question: How did the CC50 turn out when `CC1(C)C(NC(=O)c2ccc(C#CCC3CCN(CC4CCN(C(=O)C5CCN(c6ccc7nnn(C8CCC(=O)NC8=O)c(=O)c7c6)CC5)CC4)CC3)nc2)C(C)(C)C1Oc1ccc(C#N)c(Cl)c1` (centres unmarked) [Example 126, N-((1r,3r)-3-(3-chloro-4-cyanophenoxy)-2,2,4,4-tetramethylcyclobutyl)-6-(3-(1-((1-(1-(3-(2,6-dioxopiperidin-3-yl)-4-oxo-3,4-dihydrobenzo[d][1,2,3]triazin-6-yl)piperidine-4-carbonyl)piperidin-4-yl)methyl)piperidin-4-yl)prop-1-yn-1-yl)nicotinamide] was run?
Answer: 40 nM

Question: `CC1(C)C(NC(=O)c2ccc(C#CCC3CCN(CC4CCN(C(=O)C5CN(c6ccc7nnn(C8CCC(=O)NC8=O)c(=O)c7c6)C5)CC4)CC3)nc2)C(C)(C)C1Oc1ccc(C#N)c(Cl)c1` (centres unmarked) [Example 127, N-((1r,3r)-3-(3-chloro-4-cyanophenoxy)-2,2,4,4-tetramethylcyclobutyl)-6-(3-(1-((1-(1-(3-(2,6-dioxopiperidin-3-yl)-4-oxo-3,4-dihydrobenzo[d][1,2,3]triazin-6-yl)azetidine-3-carbonyl)piperidin-4-yl)methyl)piperidin-4-yl)prop-1-yn-1-yl)nicotinamide] was tested. Which CC50 did it give?
Answer: 27 nM
